Earlier results in patent US7956061B2, “Bicyclic pyrimidines as dipeptidyl peptidase-IV inhibitors for the treatment or prevention of diabetes” (Merck Sharp & Dohme Corp., priority 2005, dated 2011).
Each block holds one molecule with its values, some of them ahead of it.

Experiments:
[1] = test system: hematopoiesis; conditions: mouse, cyclophosphamide-induced neutropenia; WO 99/56753
[2] = test system: cardiac allograft; conditions: rats; Transplantation, 63: 1495-1500 (1997)
[3] = target: T1, DPP-IV (Homo sapiens, UniProt P27487); conditions: plasma
T1 construct: GRF is rapidly degraded in plasma to GRF[3-44]
T1 sequence (P27487 39-766 limits assumed, species assumed): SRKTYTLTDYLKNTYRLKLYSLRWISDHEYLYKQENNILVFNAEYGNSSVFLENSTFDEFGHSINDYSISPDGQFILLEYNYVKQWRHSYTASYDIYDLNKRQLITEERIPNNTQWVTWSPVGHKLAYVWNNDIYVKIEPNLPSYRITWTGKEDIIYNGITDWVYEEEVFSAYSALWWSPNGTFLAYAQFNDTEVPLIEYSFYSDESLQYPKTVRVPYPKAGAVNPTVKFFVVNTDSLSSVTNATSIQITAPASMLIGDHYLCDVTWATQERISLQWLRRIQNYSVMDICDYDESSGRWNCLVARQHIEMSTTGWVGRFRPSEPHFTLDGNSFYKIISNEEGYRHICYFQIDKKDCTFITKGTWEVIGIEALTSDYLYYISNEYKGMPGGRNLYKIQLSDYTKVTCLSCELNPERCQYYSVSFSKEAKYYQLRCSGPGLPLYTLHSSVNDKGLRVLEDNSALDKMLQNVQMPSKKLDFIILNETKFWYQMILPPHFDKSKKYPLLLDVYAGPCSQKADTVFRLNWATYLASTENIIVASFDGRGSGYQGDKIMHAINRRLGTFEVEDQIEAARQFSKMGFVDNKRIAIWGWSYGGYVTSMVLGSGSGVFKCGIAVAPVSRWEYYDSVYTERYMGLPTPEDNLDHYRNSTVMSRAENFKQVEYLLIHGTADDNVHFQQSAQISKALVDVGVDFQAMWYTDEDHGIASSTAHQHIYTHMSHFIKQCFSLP

Molecule: CC(C)[C@H](N)C(=O)N1CCC[C@H]1B(O)O [Val-Boro-Pro]
effect on hematopoiesis [1]: stimulated hematopoiesis

Molecule: CC(C)N1CCC(c2ccccc2)(c2ccccc2)CC1 [Prodipine, Pro-Pro-diphenyl-phosphonate]
cardiac allograft survival [2]: double cardiac allograft survival in rats from day 7 to day 14

effect on degradation of GRF to GRF[3-44] [3]: prevented
Molecule: diprotin A
